Results reported in publication PMC3682184 (Experimental Parasitology, 2013).

T1: NADP-dependent secondary alcohol dehydrogenase (ADH-1) (Trichomonas vaginalis, UniProt A2DJ40)
T1 sequence (A2DJ40 1-365): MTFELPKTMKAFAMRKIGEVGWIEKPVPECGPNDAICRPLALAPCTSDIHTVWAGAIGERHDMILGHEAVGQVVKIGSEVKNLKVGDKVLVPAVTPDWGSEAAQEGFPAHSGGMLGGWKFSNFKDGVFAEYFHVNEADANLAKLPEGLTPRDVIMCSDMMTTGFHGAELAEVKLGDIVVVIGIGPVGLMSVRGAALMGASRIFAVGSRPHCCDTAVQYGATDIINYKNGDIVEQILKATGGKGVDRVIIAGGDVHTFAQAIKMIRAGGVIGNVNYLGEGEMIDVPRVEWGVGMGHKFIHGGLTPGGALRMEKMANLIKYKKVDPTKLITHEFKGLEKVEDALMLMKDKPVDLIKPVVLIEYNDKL

T2: NADP-dependent secondary alcohol dehydrogenase (E. histolytica homologue of ADH-1) (Entamoeba histolytica, UniProt P35630)
T2 sequence (P35630 1-366): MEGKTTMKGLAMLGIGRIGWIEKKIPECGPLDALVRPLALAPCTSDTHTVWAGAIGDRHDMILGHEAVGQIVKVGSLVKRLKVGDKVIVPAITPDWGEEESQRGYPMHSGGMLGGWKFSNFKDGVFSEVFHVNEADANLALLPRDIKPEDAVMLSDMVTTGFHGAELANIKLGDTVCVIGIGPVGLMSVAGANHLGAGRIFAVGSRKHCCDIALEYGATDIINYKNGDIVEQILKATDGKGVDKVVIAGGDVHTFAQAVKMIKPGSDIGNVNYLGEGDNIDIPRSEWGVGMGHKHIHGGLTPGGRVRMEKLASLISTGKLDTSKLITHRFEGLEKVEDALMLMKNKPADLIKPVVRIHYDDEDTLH

B1: NADP-dependent secondary alcohol dehydrogenase (ADH-1) (Trichomonas vaginalis G3) (protein)
chain: T1 sequence (A2DJ40 1-365)

How the values were obtained:
[1] = molecular target: T1, NADP-dependent secondary alcohol dehydrogenase (ADH-1); experiment: NADPH oxidation at […] nm, acetaldehyde reduction; assay type: biochemical
[2] = molecular target: T2, NADP-dependent secondary alcohol dehydrogenase (E. histolytica homologue of ADH-1); experiment: NADPH oxidation at […] nm in cell extract, acetaldehyde reduction; assay type: biochemical
purified protein [3] = substrate: NC(=O)c1ccc[n+]([C@@H]2O[C@H](COP(=O)(O)OP(=O)(O)OC[C@H]3O[C@@H](n4cnc5c(N)ncnc54)[C@H](OP(=O)(O)O)[C@@H]3O)[C@@H](O)[C@H]2O)c1; experiment: purified protein; conditions: 100 mM 2-propanol, pH 6.75, 37 °C, varied: cofactor
purified protein [4] = substrate: CC(C)O; experiment: purified protein; conditions: 1 mM NADP+, pH 6.75, 37 °C

Molecule	IC50 [1]	inhibition at 200000 µM ([2]; read-out: Inhibition 2-propanol ^b aldehyde reduction)	inhibition at 100 µM ([2]; read-out: Inhibition CoA ^c aldehyde reduction)	Km (purified protein [3])	Km (purified protein [4])
CC(C)O [2-propanol]	96 ± 11 mM	80 ± 11%			
CC(C)(COP(=O)(O)OP(=O)(O)OC[C@H]1O[C@@H](n2cnc3c(N)ncnc32)[C@H](O)[C@@H]1OP(=O)(O)O)[C@@H](O)C(=O)NCCC(=O)NCCS [coenzyme A]	0.063 ± 0.017 mM		62 ± 22%		
B1				0.0412 ± 0.0044 mM	11.57 ± 1.25 mM
